Experimental data taken from PubChem BioAssay (NCI).
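How tested: cells in 96-well plates exposed to compound for 48 hours at five concentrations. Abbreviation: GI50, concentration required for 50% inhibition of growth. At the TGI there is no net growth.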

Legend:
Assay in all cases: NCI tumour cell line growth inhibition, 48 h
HOP-62 NSCLC = test system: HOP-62 NSCLC
SF-295 CNS = test system: SF-295 CNS
SF-539 CNS = test system: SF-539 CNS
HL-60(TB) leukemia = test system: HL-60(TB) leukemia
RXF 393 renal = test system: RXF 393 renal
SF-268 CNS = test system: SF-268 CNS
786-0 renal = test system: 786-0 renal
SN12C renal = test system: SN12C renal
SK-MEL-28 melanoma = test system: SK-MEL-28 melanoma
M14 melanoma = test system: M14 melanoma

Structure (SMILES)	TGI (HOP-62 NSCLC)	TGI (SF-295 CNS)	TGI (SF-539 CNS)	TGI (HL-60(TB) leukemia)	TGI (RXF 393 renal)	TGI (SF-268 CNS)	TGI (786-0 renal)	TGI (SN12C renal)	TGI (SK-MEL-28 melanoma)	TGI (M14 melanoma)	GI50 (HOP-62 NSCLC)	GI50 (RXF 393 renal)	GI50 (SF-268 CNS)	GI50 (786-0 renal)	GI50 (SN12C renal)	GI50 (SK-MEL-28 melanoma)	GI50 (M14 melanoma)	GI50 (SF-295 CNS)	GI50 (SF-539 CNS)	GI50 (HL-60(TB) leukemia)
CC(=O)N1CCN(C=S)CC1	> 100 µM	> 100 µM	> 100 µM	> 100 µM	> 100 µM	> 100 µM	> 100 µM	> 100 µM	> 100 µM	> 100 µM										
CCC12C=CCN3CCC4(C(=C(C(=O)OC)C1)Nc1ccccc14)[C@H]32 (stereo partly drawn)		92.6 µM	47.5 µM	88.7 µM	56.7 µM	45.4 µM	82 µM		> 100 µM	50.8 µM										
N#CC1([N+](=O)[O-])C=C1c1ccccc1 (stereo not drawn)	> 100 µM	> 100 µM	> 100 µM	46.3 µM		> 100 µM	> 100 µM	> 100 µM		> 100 µM										
COc1ccc2c(c1)O/C(=C\c1ccc([N+](=O)[O-])s1)C2=O	> 31.6 µM	> 47.4 µM		> 100 µM	> 20.8 µM	> 19.8 µM	> 71.6 µM	> 100 µM	> 100 µM	> 100 µM	8.11 µM	1.85 µM	1.8 µM	11.4 µM	2.28 µM	17.1 µM	2.89 µM			
COC(=O)C(C(=O)C(=O)Nc1ccc(N)cc1[N+](=O)[O-])c1nc2ccc(Cl)cc2[nH]c1=O (stereo not drawn)	> 100 µM	> 100 µM	> 100 µM	> 100 µM	> 100 µM	> 100 µM	> 100 µM	> 100 µM	> 100 µM	> 100 µM										
COC(=O)C1=C(O)C(C(=O)OC)[C@@]2(O)[C@@H](C(=O)OC)C(c3ccccc3Cl)C[C@@H]1[C@@H]2C(=O)OC (stereo partly drawn)	23.8 µM	23.8 µM	36.7 µM		35.4 µM	65.3 µM	19.5 µM	19.8 µM	30.4 µM		10.4 µM	4.37 µM	14.5 µM	5.22 µM	3.96 µM	7.16 µM		7.05 µM	14 µM	
NC(=S)N=Nc1c(O)[nH]c2ccccc12	360 µM	498 µM	361 µM	> 1000 µM	262 µM	989 µM	296 µM	331 µM	> 1000 µM		167 µM	134 µM	189 µM	142 µM	154 µM	713 µM		197 µM	170 µM	275 µM
N#CC1C(=O)NC(=O)C(C#N)C1c1ccc(Cl)c(Cl)c1 (stereo not drawn)	43.4 µM	> 100 µM	42.6 µM	> 100 µM	50.5 µM	> 100 µM	41.7 µM		> 100 µM	56 µM										
COn1cc(C(=O)N=C(SC)SC)c2ccccc21	51.4 µM	55.4 µM	43.4 µM		96.2 µM	> 100 µM	46.9 µM	74.3 µM	> 100 µM	48.1 µM	17.6 µM	25 µM	> 100 µM	20.4 µM	22.4 µM	80 µM	18.4 µM	16.8 µM	18.7 µM	
